In the experiment the target is T1, CK1alpha (Homo sapiens, UniProt P48729).
T1 construct: MM1S cells were purchased from ATCC (cat. Number CRL-2974); endogenous in cells; host or cells: MM1S (ATCC CRL-2974)
As to the kind of experiment: Selectivity determination by Western Blot assay in MM1S cells: CK1alpha. Type of experiment: cell-based. The arrangement: key: A represents a no degradation observed at 30 μM; B represents trace degradation at 30 μM (below 20%); C represents weak degradation at 30 μM (below 50%); D represents degradation at 30 μM (>90%); E represents degradation at 3 μM (>90%); F represents degradation at 0.3 μM (>90%). As to conditions: MM1S cells, 0.3, 3 and 30 μM, 6 hours. As for the experimental part:
CK1alpha/Ikaros/Aiolos/ZFP91 Selectivity determination by Western Blot Assay
MM1S cells were purchased from ATCC (cat. Number CRL-2974), sub-cultured in 90% RPMI 1640 with 10% FBS, supplemented with 1× P/S and incubated at 37° C., 5% CO2. Compounds were stored as 10 mM DMSO stock. For the assay, MM1S cells (3 million cells/well) were plated in 6-well plates and incubated over night. Cells were treated with respective compounds using a serial dilution: 0.3 μM, 3 μM and 30 μM as well as a vehicle only (DMSO) control for 6 hours. Media with suspension cells was subsequently transferred to 15 mL conical tubes, wells rinsed twice with ice-cold PBS and merged with cell suspension in respective 15 mL conical tube. Cells were spinned down, supernatant aspirated, pellets resuspended in ice-cold PBS and transferred to microtubes. Cells were spinned down, supernatant aspirated and pellets resuspended in 120 μL RIPA lysis buffer supplemented with protease and phosphatase inhibitors. Cell lysates were incubated on ice for 20 minutes followed by centrifugation at >20,000×g for 5 mM. Supernatants were transferred to fresh microtubes and stored at −80° C. Total protein concentration was determined using a BCA assay with a BSA standard curve and concentration of all samples was adjusted to 1 mg/mL. 25 μL 4× LDS sample buffer supplemented with 100 mM DTT was added to 75 μL sample. Samples were centrifuged (8,000×g, 1 min) and incubated at 95° C. for […] followed by another centrifugation step (8,000×g, 1 mM). 20 μL of each sample was loaded on a 4-12% gel alongside a protein molecular weight marker. Gels were run in the presence of MOPS buffer at 80 Volts for […], followed by 120 Volts for 1.5 h and proteins subsequently transferred onto nitrocellulose membranes at 20 Volts for 7 mM using an iBlot2 Gel Transfer Device. Membranes were then cut horizontally into two pieces, covering 80-50 kDa and 50-25 kDa. Blocking the membranes was performed by gently shaking in 5% (w/v) skim milk in TSB-T for 1 hr at room temperature. All primary antibodies were used at a 1/1000 in 5% (w/v) BSA dissolved in TBST and incubated with membranes over night at 4° C. After three washes with 1× TBST for 5 mM, HRP-coupled secondary antibodies diluted in 5% (w/v) BSA/TBST (Goat Anti-Rb IgG, dil. 1/10,000; Goat Anti-Mouse IgG, dil. 1/5000) were added for 1 hr at room temperature. After three washes with 1× TBST (5 minutes each), membranes were incubated with ECL reagent for 1 mM at room temperature. Chemiluminescence signals were then detected using a LAS-4000 system with default settings and signals quantified using Image Studio Lite software (version 5.2). Membrane parts previously incubated with antibody against CK1alpha were stripped off antibodies by incubating with stripping buffer for 30 minutes followed by three washed with TBST (5 mM each), blocking with 5% (w/v) skim milk for 1 hr, and incubation with primary antibody against GAPDH overnight at 4° C. Subsequent washes, incubation with secondary antibody and signal acquisition were performed as described above.
Table 5 assigns each compound a code indicating the ability for the degradation of IKZF1, IKZF3, CK1alpha and ZFP91: A, B, C, D, E or F. According to the code, A represents a no degradation observed at 30 μM, B represents trace degradation at 30 μM (below 20%), C represents weak degradation at 30 μM (below 50%), D represents degradation at 30 μM (>90%), E represents degradation at 3 μM (>90%) and F represents degradation at 0.3 μM (>90%).
On the technique in general: In western blotting, separated proteins are transferred to a membrane and probed.

T1 sequence (Q96SW2 whole entry partner): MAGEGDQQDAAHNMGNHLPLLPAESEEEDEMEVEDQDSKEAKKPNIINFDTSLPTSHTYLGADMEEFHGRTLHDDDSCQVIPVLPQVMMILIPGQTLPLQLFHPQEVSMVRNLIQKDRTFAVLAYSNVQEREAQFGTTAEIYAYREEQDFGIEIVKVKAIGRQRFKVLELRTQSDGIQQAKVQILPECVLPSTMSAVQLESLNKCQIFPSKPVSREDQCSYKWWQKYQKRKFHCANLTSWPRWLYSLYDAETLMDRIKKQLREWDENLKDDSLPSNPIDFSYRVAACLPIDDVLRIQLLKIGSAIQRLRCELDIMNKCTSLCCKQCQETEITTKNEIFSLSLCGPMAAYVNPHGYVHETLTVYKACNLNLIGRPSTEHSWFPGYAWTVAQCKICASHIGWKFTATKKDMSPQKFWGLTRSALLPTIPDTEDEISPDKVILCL
T1 sequence (Q16531 2-1140 partner limits assumed): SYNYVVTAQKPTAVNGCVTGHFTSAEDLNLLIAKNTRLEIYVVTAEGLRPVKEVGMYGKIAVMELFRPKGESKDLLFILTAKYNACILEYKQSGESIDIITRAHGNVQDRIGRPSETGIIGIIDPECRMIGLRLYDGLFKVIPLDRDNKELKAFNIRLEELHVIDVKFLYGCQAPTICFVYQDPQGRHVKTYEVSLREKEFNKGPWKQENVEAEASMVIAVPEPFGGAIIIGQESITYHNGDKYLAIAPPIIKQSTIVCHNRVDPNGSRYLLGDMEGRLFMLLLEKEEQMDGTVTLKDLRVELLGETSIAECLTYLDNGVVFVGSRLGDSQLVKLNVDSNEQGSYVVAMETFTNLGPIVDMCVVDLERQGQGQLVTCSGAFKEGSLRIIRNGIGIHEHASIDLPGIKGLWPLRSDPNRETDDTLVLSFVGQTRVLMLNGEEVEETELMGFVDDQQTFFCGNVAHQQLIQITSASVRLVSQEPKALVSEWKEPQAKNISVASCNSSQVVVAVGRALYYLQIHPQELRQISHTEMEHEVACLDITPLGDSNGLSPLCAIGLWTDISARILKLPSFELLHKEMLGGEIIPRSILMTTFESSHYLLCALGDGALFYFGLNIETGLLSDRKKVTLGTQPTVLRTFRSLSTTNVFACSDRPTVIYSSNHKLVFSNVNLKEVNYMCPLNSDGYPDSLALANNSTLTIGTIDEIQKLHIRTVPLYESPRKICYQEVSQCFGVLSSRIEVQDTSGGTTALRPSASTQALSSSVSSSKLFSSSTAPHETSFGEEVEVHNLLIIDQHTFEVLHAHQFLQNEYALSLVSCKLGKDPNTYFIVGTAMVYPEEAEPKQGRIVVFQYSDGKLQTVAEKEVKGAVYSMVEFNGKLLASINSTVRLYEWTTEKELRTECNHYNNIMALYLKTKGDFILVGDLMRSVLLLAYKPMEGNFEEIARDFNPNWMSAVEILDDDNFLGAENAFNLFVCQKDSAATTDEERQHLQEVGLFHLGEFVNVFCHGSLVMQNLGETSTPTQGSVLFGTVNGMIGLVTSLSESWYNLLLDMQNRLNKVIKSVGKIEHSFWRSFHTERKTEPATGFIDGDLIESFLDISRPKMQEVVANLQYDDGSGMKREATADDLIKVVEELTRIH
T1 sequence (P48729 whole entry): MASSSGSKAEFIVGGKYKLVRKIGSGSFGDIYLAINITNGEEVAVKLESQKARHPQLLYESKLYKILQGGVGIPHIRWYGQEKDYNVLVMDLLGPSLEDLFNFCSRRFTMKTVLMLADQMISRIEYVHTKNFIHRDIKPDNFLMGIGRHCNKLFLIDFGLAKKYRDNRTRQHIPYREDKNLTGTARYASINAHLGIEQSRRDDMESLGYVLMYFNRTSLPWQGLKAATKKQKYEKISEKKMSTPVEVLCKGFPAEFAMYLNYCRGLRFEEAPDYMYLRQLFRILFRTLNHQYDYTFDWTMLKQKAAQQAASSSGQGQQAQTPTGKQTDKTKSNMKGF

`Cc1cc(C)c(NC(=O)NCc2ccc3c(c2)C(=O)N(C2CCC(=O)NC2=O)C3)cc1Cl` (stereo not shown) [Compound 85]: the CK1alpha degradation code result was “B (B represents trace degradation at 30 μM (below 20%))”.
With `O=C1CCC(N2Cc3ccc(CNC(=O)Nc4cccc(CN5CCOCC5)c4)cc3C2=O)C(=O)N1` (stereo not shown) [Compound 105] the entry was “A”; with `Cc1ccc(NC(=O)NCc2ccc3c(c2)C(=O)N(C2CCC(=O)NC2=O)C3)c(Cl)c1Cl` (stereo not shown) [Compound 87], “A”; with `Cc1c(Cl)cc(NC(=O)NCc2ccc3c(c2)C(=O)N(C2CCC(=O)NC2=O)C3)cc1CC1COCOC1` (stereo not shown) [Compound 132], “C (C represents weak degradation at 30 μM (below 50%))”.
With `Cc1c(Cl)cc(NC(=O)NCc2ccc3c(c2)C(=O)N(C2CCC(=O)NC2=O)C3)cc1CN(C)C` (stereo not shown) [Compound 75] the entry was “A”.
Take `Cc1ccc(NC(=O)NCc2ccc3c(c2)C(=O)N(C2CCC(=O)NC2=O)C3)cc1Cl` (stereo not shown) [Compound 8]: the CK1alpha degradation code result is listed as “A”.
For the compound `Cc1c(Cl)cc(NC(=O)NCc2ccc3c(c2)C(=O)N(C2CCC(=O)NC2=O)C3)cc1CN1CCOCC1` (stereo not shown) [Compound 82], the CK1alpha degradation code entry was “A”.
